From patent US20240122923A1, “METHODS OF TREATING HIDRADENITIS SUPPURATIVA” (AbbVie Inc., priority 2022, published 2024)
Values joined by “and” are separate entries in the source; they are usually repeats but may differ in a detail not shown here. Identical values can stand only once.

What was measured:
Type in all cases: in vivo
[1] = test system: adult human subjects with moderate to severe Hidradenitis Suppurativa (HS); assay: Phase 2 randomized, double-blind, placebo-controlled study of upadacitinib, efficacy incl. post-hoc analysis through week 40; conditions: for subjects achieving HiSCR at Week 12, n (%): upadacitinib 30 mg QD oral, N=47; for subjects achieving Pain NRS30 at Week 12 among subjects with Baseline NRS ≥ 3, n (%): upadacitinib 30 mg QD, N=33
From the text: (§1) This study was a Phase 2, multicenter, randomized, double-blind, parallel-group, placebo-controlled study to evaluate the efficacy and safety of upadacitinib in adult human subjects with moderate to severe Hidradenitis Suppurativa (HS).
(§2) The duration of the study was 57 weeks, including an approximately 35-day screening period followed by a 48-week double-blinded treatment period and a 30-day follow-up visit after the last dose of study drug. Subjects were randomized in a 2:1 ratio to 1 of the 2 arms as shown below: • Upadacitinib 30 mg once daily (QD) (N=40): Daily oral doses of upadacitinib 30 mg from the Baseline visit through Period 1 and Period 2. • Placebo (N=20): Placebo for upadacitinib from the Baseline visit up to the Week 12 visit (Period 1). At Week 12, subjects were switched to blinded upadacitinib 15 mg QD through Period 2.
The primary objective of this study was to assess the efficacy and safety of upadacitinib 30 mg QD in adult subjects with moderate to severe HS. The primary efficacy objective was assessed based on the achievement of HiSCR after 12 weeks treatment.
The primary endpoint was Hidradenitis Suppurativa Clinical Response (HiSCR) at Week 12, where HiSCR is defined as at least 50% reduction in the total abscess and inflammatory nodule (AN) count with no increase in abscess count and no increase in draining fistula count relative to Baseline.
The secondary endpoint was Pain Numerical Rating Scale (NRS30) at Week 12: the achievement of at least 30% reduction and at least 1 unit reduction from Baseline in NRS30 in Patient's Global Assessment of Skin Pain (PGA Skin Pain) at Week 12, among subjects with Baseline NRS≥3.
The following additional efficacy endpoints were evaluated: • 1. Experience of flare, defined as an increase in AN count of at least 25% with a minimum increase of 2 relative to Baseline • 2. Change from Baseline in Dermatology Life Quality Index (DLQI) • 3. Change from baseline in Hidradenitis Suppurativa Symptom Assessment (HSSA) • 4. Change from baseline in HS-related swelling, assessed based on the HSSA • 5. Change from baseline in HS-related odor, assessed based on the HSSA • 6. Change from baseline in HS-related worst drainage, assessed based on the HSSA
For the primary and secondary endpoints, comparisons of upadacitinib vs. placebo were made with 3 different analysis strategies, as summarized in Table 1 below:
For the additional endpoints, comparisons were made for upadacitinib vs. historical reference value of placebo, and upadacitinib vs. in-trial placebo subjects.
For categorical variables, the primary approach to handle missing data was Non-Responder Imputation [NRI] incorporating Multiple Imputation [MI]. For continuous variables, missing data was handled by Mixed-effect Model Repeat Measurement (MMRM). Missing data for long-term efficacy in Period 2 were handled based on the observed case (OC).
A post-hoc efficacy assessment through week 40 was performed in the study of Example 1. The analysis included the proportion of patients achieving ≥75% and ≥90% reduction from baseline in AN count with no increase in abscess or draining fistula count (HiSCR 75 and HiSCR 90, respectively) and the proportion of patients achieving ≥55% reduction in International HS Severity Score System endpoint (IHS4-55), which dynamically assesses inflammatory nodules, abscesses, and draining tunnels.

[2] = test system: adult human subjects with moderate to severe Hidradenitis Suppurativa (HS); assay: Phase 2 study of upadacitinib in HS, safety (TEAEs, discontinuation due to adverse event)
From the text: as §1, §2
Treatment-emergent adverse events (TEAEs), adverse events of interests (AESIs), and potentially clinically important (PCI) laboratory changes were monitored in Period 1.

[3] = test system: adult human subjects with moderate to severe Hidradenitis Suppurativa (HS); assay: Phase 2 randomized, double-blind, placebo-controlled study of upadacitinib, efficacy incl. post-hoc analysis through week 40; conditions: UPA 30 mg QD; N=47; flare = AN count increase ≥25% with minimum increase of 2
[4] = UPA 30 mg, analysis vs historical reference value of PBO
[5] = UPA 30 mg, analysis vs in-trial PBO
[6] = Week 12, UPA 30 mg, Observed Case, n=39
[7] = Week 40, PBO/UPA 15 mg (switched at week 12), NRI-C, n=19
[8] = Week 40, UPA 30 mg/UPA 30 mg, NRI-C, n=47
[9] = Week 40, UPA 30 mg/UPA 30 mg, Observed Case, n=29

CC[C@@H]1CN(C(=O)NCC(F)(F)F)C[C@@H]1c1cnc2cnc3[nH]ccc3n12 [upadacitinib]
HiSCR at Week 12, % (N), stratum TNF-Naïve ([1]; UPA 30 mg, NRI-C, N=35, listed as UPA): 37.1% (N = 35)
Change in DLQI at Week 12, LS Mean (SE) [1, 4]: −2.4 (1.05)
Change in HSSA odor at Week 12, LS Mean (SE) [1, 4]: -1.2
Change in HSSA swelling at Week 12, LS Mean (SE) [1, 4]: -0.931
Change in HSSA total symptom at Week 12, LS Mean (SE) [1, 4]: -0.969
Change in HSSA worst drainage at Week 12, LS Mean (SE) [1, 4]: −1.131 (0.31)
Change in DLQI at Week 12, LS Mean (SE) [1, 5]: -2.4
Change in HSSA odor at Week 12, LS Mean (SE) [1, 5]: −1.171 (0.36)
Change in HSSA swelling at Week 12, LS Mean (SE) [1, 5]: −0.922 (0.34)
Change in HSSA total symptom at Week 12, LS Mean (SE) [1, 5]: −1.034 (0.27)
Change in HSSA worst drainage at Week 12, LS Mean (SE) [1, 5]: −1.259 (0.30)
Patients achieving HiSCR 90, n (%) ([1]; Week 12, UPA 30 mg, NRI-C, n=47, listed as UPA): 8.5% and 4 (8.5)^‡ %
Patients achieving HiSCR 75, n (%) [1, 6]: 10 (25.6) %
Patients achieving HiSCR 90, n (%) [1, 6]: 4 (10.3) %
Patients achieving HiSCR, n (%) [1, 6]: 18 (46.2) %
Patients achieving IHS4-55, n (%) [1, 6]: 19 (48.7) %
Patients achieving HiSCR 75, n (%) [1, 7]: 7 (36.8) %
Patients achieving HiSCR 90, n (%) [1, 7]: 4 (21.1) %
Patients achieving HiSCR, n (%) [1, 7]: 10 (52.6) %
Patients achieving IHS4-55, n (%) [1, 7]: 12 (63.2) %
Patients achieving IHS4-55, n (%) ([1]; Week 40, PBO/UPA 15 mg (switched at week 12), Observed Case, n=14): 85.7%
Patients achieving IHS4-55, n (%) ([1]; Week 40, PBO/UPA 15 mg (switched at week 12), Observed Case, n=14, listed as UPA): 12 (85.7) %
Patients achieving HiSCR 75, n (%) [1, 8]: 18 (38.3) %
Patients achieving HiSCR 90, n (%) [1, 8]: 9 (19.1) %
Patients achieving HiSCR, n (%) [1, 8]: 22 (46.8) %
Patients achieving IHS4-55, n (%) [1, 8]: 21 (44.7) %
Patients achieving HiSCR 75, n (%) [1, 9]: 18 (62.1) %
Patients achieving IHS4-55, n (%) [1, 9]: 72.4%
Patients achieving IHS4-55, n (%) ([1]; Week 40, UPA 30 mg/UPA 30 mg, Observed Case, n=29, listed as UPA): 21 (72.4) %
subjects achieving HiSCR at Week 12, n (%) ([1]; NRI-C): 38.3%
subjects achieving HiSCR at Week 12, n (%) ([1]; NRI-C, listed as Upadacitinib): 18 (38.3) %
subjects achieving Pain NRS30 at Week 12 among subjects with Baseline NRS ≥ 3, n (%) ([1]; NRI-C): 36.4%
subjects achieving Pain NRS30 at Week 12 among subjects with Baseline NRS ≥ 3, n (%) ([1]; NRI-C, listed as UPA): 12 (36.4%)
subjects achieving Pain NRS30 at Week 12 among subjects with Baseline NRS ≥ 3, n (%) ([1]; NRI-C, listed as Upadacitinib): 12 (36.4) %
most frequently reported TEAE (≥5%) ([2]; Period 1, upadacitinib 30 mg QD group): headache, dizziness, and urinary tract infection
Discontinued Study Drug during Period 2 (primary reason): Adverse event, n (%) ([2]; Placebo/UPA 15 mg, N=19): 0
Discontinued Study Drug during Period 1: Adverse Event, n (%) ([2]; UPA 30 mg, N=47): (2.1) %
Discontinued Study Drug during Period 2 (primary reason): Adverse event, n (%) ([2]; UPA 30 mg, N=47): 0
Flare during Period 1, n (%) [3]: 6 (12.8%)
